Experimental data as given in BigSolDB 2.1.

## Nc1cccc(S(=O)(=O)c2cccc(N)c2)c1
In 1,4-dioxane, 283.15 K
  solubility (mole fraction): 0.00411
In 1,4-dioxane, 288.15 K
  solubility (mole fraction): 0.00462
In 1,4-dioxane, 293.15 K
  solubility (mole fraction): 0.00538
In 1,4-dioxane, 298.15 K
  solubility (mole fraction): 0.00652
In 1,4-dioxane, 303.15 K
  solubility (mole fraction): 0.0083
In 1,4-dioxane, 308.15 K
  solubility (mole fraction): 0.0102
In 1,4-dioxane, 313.15 K
  solubility (mole fraction): 0.0123
In 1,4-dioxane, 318.15 K
  solubility (mole fraction): 0.0147
In 1,4-dioxane, 323.15 K
  solubility (mole fraction): 0.0169
In 1,4-dioxane, 328.15 K
  solubility (mole fraction): 0.0194
In DMF, 283.15 K
  solubility (mole fraction): 0.0869
In DMF, 288.15 K
  solubility (mole fraction): 0.0916
In DMF, 293.15 K
  solubility (mole fraction): 0.0989
In DMF, 298.15 K
  solubility (mole fraction): 0.11
In DMF, 303.15 K
  solubility (mole fraction): 0.12
In DMF, 308.15 K
  solubility (mole fraction): 0.132
In DMF, 313.15 K
  solubility (mole fraction): 0.146
In DMF, 318.15 K
  solubility (mole fraction): 0.162
In DMF, 323.15 K
  solubility (mole fraction): 0.181
In DMF, 328.15 K
  solubility (mole fraction): 0.2
In acetonitrile, 283.15 K
  solubility (mole fraction): 0.00609
In acetonitrile, 288.15 K
  solubility (mole fraction): 0.00709
In acetonitrile, 293.15 K
  solubility (mole fraction): 0.0087
In acetonitrile, 298.15 K
  solubility (mole fraction): 0.0105
In acetonitrile, 303.15 K
  solubility (mole fraction): 0.0127
In acetonitrile, 308.15 K
  solubility (mole fraction): 0.0151
In acetonitrile, 313.15 K
  solubility (mole fraction): 0.0182
In acetonitrile, 318.15 K
  solubility (mole fraction): 0.0225
In acetonitrile, 323.15 K
  solubility (mole fraction): 0.0272
In acetonitrile, 328.15 K
  solubility (mole fraction): 0.033
In cyclohexane, 283.15 K
  solubility (mole fraction): 2.7e-06
In cyclohexane, 288.15 K
  solubility (mole fraction): 3.6e-06
In cyclohexane, 293.15 K
  solubility (mole fraction): 5.1e-06
In cyclohexane, 298.15 K
  solubility (mole fraction): 7.7e-06
In cyclohexane, 303.15 K
  solubility (mole fraction): 1.09e-05
In cyclohexane, 308.15 K
  solubility (mole fraction): 1.51e-05
In cyclohexane, 313.15 K
  solubility (mole fraction): 2.03e-05
In cyclohexane, 318.15 K
  solubility (mole fraction): 2.78e-05
In cyclohexane, 323.15 K
  solubility (mole fraction): 3.7e-05
In cyclohexane, 328.15 K
  solubility (mole fraction): 4.86e-05
In ethanol, 283.15 K
  solubility (mole fraction): 0.00237
In ethanol, 288.15 K
  solubility (mole fraction): 0.00256
In ethanol, 293.15 K
  solubility (mole fraction): 0.00297
In ethanol, 298.15 K
  solubility (mole fraction): 0.00349
In ethanol, 303.15 K
  solubility (mole fraction): 0.00415
In ethanol, 308.15 K
  solubility (mole fraction): 0.00492
In ethanol, 313.15 K
  solubility (mole fraction): 0.00574
In ethanol, 318.15 K
  solubility (mole fraction): 0.00661
In ethanol, 323.15 K
  solubility (mole fraction): 0.00738
In ethanol, 328.15 K
  solubility (mole fraction): 0.00837
In ethyl acetate, 283.15 K
  solubility (mole fraction): 0.0146
In ethyl acetate, 288.15 K
  solubility (mole fraction): 0.0162
In ethyl acetate, 293.15 K
  solubility (mole fraction): 0.0184
In ethyl acetate, 298.15 K
  solubility (mole fraction): 0.021
In ethyl acetate, 303.15 K
  solubility (mole fraction): 0.0243
In ethyl acetate, 308.15 K
  solubility (mole fraction): 0.0278
In ethyl acetate, 313.15 K
  solubility (mole fraction): 0.0321
In ethyl acetate, 318.15 K
  solubility (mole fraction): 0.037
In ethyl acetate, 323.15 K
  solubility (mole fraction): 0.0424
In ethyl acetate, 328.15 K
  solubility (mole fraction): 0.0485
In ethylene glycol, 283.15 K
  solubility (mole fraction): 0.00458
In ethylene glycol, 288.15 K
  solubility (mole fraction): 0.00515
In ethylene glycol, 293.15 K
  solubility (mole fraction): 0.00595
In ethylene glycol, 298.15 K
  solubility (mole fraction): 0.00701
In ethylene glycol, 303.15 K
  solubility (mole fraction): 0.00843
In ethylene glycol, 308.15 K
  solubility (mole fraction): 0.0101
In ethylene glycol, 313.15 K
  solubility (mole fraction): 0.012
In ethylene glycol, 318.15 K
  solubility (mole fraction): 0.0144
In ethylene glycol, 323.15 K
  solubility (mole fraction): 0.0168
In ethylene glycol, 328.15 K
  solubility (mole fraction): 0.0194
In isobutanol, 283.15 K
  solubility (mole fraction): 0.000586
In isobutanol, 288.15 K
  solubility (mole fraction): 0.000665
In isobutanol, 293.15 K
  solubility (mole fraction): 0.000784
In isobutanol, 298.15 K
  solubility (mole fraction): 0.000952
In isobutanol, 303.15 K
  solubility (mole fraction): 0.00115
In isobutanol, 308.15 K
  solubility (mole fraction): 0.00137
In isobutanol, 313.15 K
  solubility (mole fraction): 0.00166
In isobutanol, 318.15 K
  solubility (mole fraction): 0.002
In isobutanol, 323.15 K
  solubility (mole fraction): 0.00234
In isobutanol, 328.15 K
  solubility (mole fraction): 0.00271
In isopropanol, 283.15 K
  solubility (mole fraction): 0.00106
In isopropanol, 288.15 K
  solubility (mole fraction): 0.00121
In isopropanol, 293.15 K
  solubility (mole fraction): 0.00148
In isopropanol, 298.15 K
  solubility (mole fraction): 0.00196
In isopropanol, 303.15 K
  solubility (mole fraction): 0.00258
In isopropanol, 308.15 K
  solubility (mole fraction): 0.00326
In isopropanol, 313.15 K
  solubility (mole fraction): 0.00406
In isopropanol, 318.15 K
  solubility (mole fraction): 0.005
In isopropanol, 323.15 K
  solubility (mole fraction): 0.00611
In isopropanol, 328.15 K
  solubility (mole fraction): 0.00731
In methanol, 283.15 K
  solubility (mole fraction): 0.00319
In methanol, 288.15 K
  solubility (mole fraction): 0.00351
In methanol, 293.15 K
  solubility (mole fraction): 0.00397
In methanol, 298.15 K
  solubility (mole fraction): 0.00482
In methanol, 303.15 K
  solubility (mole fraction): 0.00604
In methanol, 308.15 K
  solubility (mole fraction): 0.00744
In methanol, 313.15 K
  solubility (mole fraction): 0.00905
In methanol, 318.15 K
  solubility (mole fraction): 0.0107
In methanol, 323.15 K
  solubility (mole fraction): 0.0125
In methanol, 328.15 K
  solubility (mole fraction): 0.0152
In n-butanol, 283.15 K
  solubility (mole fraction): 0.00109
In n-butanol, 288.15 K
  solubility (mole fraction): 0.00121
In n-butanol, 293.15 K
  solubility (mole fraction): 0.00142
In n-butanol, 298.15 K
  solubility (mole fraction): 0.00171
In n-butanol, 303.15 K
  solubility (mole fraction): 0.00205
In n-butanol, 308.15 K
  solubility (mole fraction): 0.00246
In n-butanol, 313.15 K
  solubility (mole fraction): 0.00294
In n-butanol, 318.15 K
  solubility (mole fraction): 0.00343
In n-butanol, 323.15 K
  solubility (mole fraction): 0.00396
In n-butanol, 328.15 K
  solubility (mole fraction): 0.00452
In n-heptanol, 283.15 K
  solubility (mole fraction): 0.000699
In n-heptanol, 288.15 K
  solubility (mole fraction): 0.000776
In n-heptanol, 293.15 K
  solubility (mole fraction): 0.000898
In n-heptanol, 298.15 K
  solubility (mole fraction): 0.00106
In n-heptanol, 303.15 K
  solubility (mole fraction): 0.0013
In n-heptanol, 308.15 K
  solubility (mole fraction): 0.0016
In n-heptanol, 313.15 K
  solubility (mole fraction): 0.002
In n-heptanol, 318.15 K
  solubility (mole fraction): 0.00242
In n-heptanol, 323.15 K
  solubility (mole fraction): 0.0029
In n-heptanol, 328.15 K
  solubility (mole fraction): 0.00346
In n-propanol, 283.15 K
  solubility (mole fraction): 0.00142
In n-propanol, 288.15 K
  solubility (mole fraction): 0.00152
In n-propanol, 293.15 K
  solubility (mole fraction): 0.00177
In n-propanol, 298.15 K
  solubility (mole fraction): 0.00214
In n-propanol, 303.15 K
  solubility (mole fraction): 0.00254
In n-propanol, 308.15 K
  solubility (mole fraction): 0.00301
In n-propanol, 313.15 K
  solubility (mole fraction): 0.00356
In n-propanol, 318.15 K
  solubility (mole fraction): 0.00418
In n-propanol, 323.15 K
  solubility (mole fraction): 0.00496
In n-propanol, 328.15 K
  solubility (mole fraction): 0.0059
In water, 283.15 K
  solubility (mole fraction): 1.52e-05
In water, 288.15 K
  solubility (mole fraction): 1.9e-05
In water, 293.15 K
  solubility (mole fraction): 2.51e-05
In water, 298.15 K
  solubility (mole fraction): 3.32e-05
In water, 303.15 K
  solubility (mole fraction): 4.29e-05
In water, 308.15 K
  solubility (mole fraction): 5.62e-05
In water, 313.15 K
  solubility (mole fraction): 7.79e-05
In water, 318.15 K
  solubility (mole fraction): 0.000106
In water, 323.15 K
  solubility (mole fraction): 0.000145
In water, 328.15 K
  solubility (mole fraction): 0.000198
